IC50 data for 27 molecules are collected here from US10717730B1, “Dihydroisoquinoline compound” (SUZHOU ARK BIOPHARMACEUTICAL CO., LTD., priority 2017, dated 2020).

As a reminder, the IC50 is the midpoint of a concentration-inhibition curve. Low readings indicate greater potency in that assay, high ones weaker potency in that assay.

SMILES strings stand for the structures.

This assay relates to HBsAg. Nature of the assay: HBsAg assay (secreted HBsAg by CLIA in HepG2.2.15 cells). As to conditions: Hepatitis B virus, HepG2.2.15, 96 h. It counts as cell-based, hepatitis B virus (HBV). As to the method: HepG2.2.15 cells (Sells et al, Proc Natl Acad Sci USA. 1987 February; 84(4):1005-9), a constitutively HBV-expressing cell line, were cultured in DMEM medium supplemented with 10% FBS and 400 μg/mL G418, and maintained in 5% CO2 at 37° C.
HepG2.2.15 cells were seeded into 96-well plates at 3×10^4 cells/well. The next day, the cells were treated with a five-fold serial dilution series of the compound in DMSO. The final DMSO concentration in all wells was 0.5% and 0.5% DMSO was used as no drug control. After four days of incubation with compounds, the supernatants were harvested and measured for HBsAg concentration
The HBsAg chemiluminescence immunoassay (CLIA) kit was used to measure the levels of secreted HBsAg. Specifically, 50 μL of culture supernatant was transferred to the CLIA assay plate and 50 μL of enzyme conjugate reagent was added into each well. The plates were sealed and incubated for 1 hour at room temperature. The supernatant-enzyme-mixture was discarded and wells were washed for 6 times. The residual liquid was removed by plating on tissue paper. 25 μL of substrate A and B were added into each well. Luminance was measured using a spectrometer (Tecan Infinite® F200) after 10 minutes incubation. IC50 value was extrapolated based the dose-response curves generated from the data.

In turn, `COc1cc2c(cc1-c1ccc(N3CCOCC3)nc1)CC(C(C)(C)C)n1cc(C(=O)O)c(=O)cc1-2` (stereo not drawn) [Example 40, 6-(tert-butyl)-10-methoxy-9-(6-morpholinylpyridin-3-yl)-2-oxo-6,7-dihydro-2H-pyrido[2,1-a]isoquinoline-3-carboxylic acid] showed an IC50 of 6 nM.
As to `COc1cc2c(cc1-c1ccc(C(F)(F)F)nc1)CC(C(C)(C)C)n1cc(C(=O)O)c(=O)cc1-2` (stereo not drawn) [Example 41, 6-(tert-butyl)-10-methoxy-2-oxo-9-(6-trifluoromethylpyridin-3-yl)-6,7-dihydro-2H-pyrido[2,1-a]isoquinoline-3-carboxylic acid], the IC50 turned out to be 2 nM.
`COCCOc1ccc(-c2cc3c(cc2OC)-c2cc(=O)c(C(=O)O)cn2C(C(C)(C)C)C3)cn1` (stereo not drawn) [Example 42, 6-(tert-butyl)-10-methoxy-9-(6-(2-methoxyethoxy)pyridin-3-yl)-2-oxo-6,7-dihydro-2H-pyrido[2,1-a]isoquinoline-3-carboxylic acid] displayed an IC50 of 2 nM.
With `COc1cc2c(cc1-c1ccc(N(C)C)nc1)CC(C(C)(C)C)n1cc(C(=O)O)c(=O)cc1-2` (stereo not drawn) [Example 43, 6-(tert-butyl)-9-(6-(dimethylamino)pyridin-3-yl)-10-methoxy-2-oxo-6,7-dihydro-2H-pyrido[2,1-a]isoquinoline-3-carboxylic acid] the figure was 1 nM.
In the case of `COc1cc2c(cc1-c1ccc(N3CCCC3)nc1)CC(C(C)(C)C)n1cc(C(=O)O)c(=O)cc1-2` (stereo not drawn) [Example 44, 6-(tert-butyl)-10-methoxy-2-oxo-9-(6-(pyrrolidin-1-yl)pyridin-3-yl)-6,7-dihydro-2H-pyrido[2,1-a]isoquinoline-3-carboxylic acid], half-maximal inhibition (IC50) was put at 10 nM.
As to `COc1cc2c(cc1-c1ccc(N3CCNCC3)nc1)CC(C(C)(C)C)n1cc(C(=O)O)c(=O)cc1-2` (stereo not drawn) [Example 45, 6-(tert-butyl)-10-methoxy-2-oxo-9-(6-(piperazin-1-yl)pyridin-3-yl)-6,7-dihydro-2H-pyrido[2,1-a]isoquinoline-3-carboxylic acid], the IC50 worked out at 14 nM.
For `COc1cc2c(cc1-c1ccc(N3CCN(C(C)=O)CC3)nc1)CC(C(C)(C)C)n1cc(C(=O)O)c(=O)cc1-2` (stereo not drawn) [Example 46, 9-(6-(4-acetylpiperazin-1-yl)pyridin-3-yl)-6-(tert-butyl)-10-methoxy-2-oxo-6,7-dihydro-2H-pyrido[2,1-a]isoquinoline-3-carboxylic acid], the IC50 was found to be 3 nM.
With `COc1cc2c(cc1-c1ccc(N3CCN(C)CC3)nc1)CC(C(C)(C)C)n1cc(C(=O)O)c(=O)cc1-2` (stereo not drawn) [Example 47, 6-(tert-butyl)-10-methoxy-9-(6-(4-methylpiperazin-1-yl)pyridin-3-yl)-2-oxo-6,7-dihydro-2H-pyrido[2,1-a]isoquinoline-3-carboxylic acid] the figure was 2 nM; with `COc1cc2c(cc1-c1cnc(F)cc1C)CC(C(C)(C)C)n1cc(C(=O)O)c(=O)cc1-2` (stereo not drawn) [Example 48, 6-(tert-butyl)-9-(6-fluoro-4-methylpyridin-3-yl)-10-methoxy-2-oxo-6,7-dihydro-2H-pyrido[2,1-a]isoquinoline-3-carboxylic acid], 68 nM.
With `COc1cc2c(cc1-c1ccc(F)nc1)CC(C(C)(C)C)n1cc(C(=O)O)c(=O)cc1-2` (stereo not drawn) [Example 49, 6-(tert-butyl)-9-(6-fluoropyridin-3-yl)-10-methoxy-2-oxo-6,7-dihydro-2H-pyrido[2,1-a]isoquinoline-3-carboxylic acid] the figure was 14 nM; with `COc1cc2c(cc1-c1ccc(NCC3CC3)nc1)CC(C(C)(C)C)n1cc(C(=O)O)c(=O)cc1-2` (stereo not drawn) [Example 52, 6-(tert-butyl)-9-(6-(cyclopropylmethylamino)pyridin-3-yl)-10-methoxy-2-oxo-6,7-dihydro-2H-pyrido[2,1-a]isoquinoline-3-carboxylic acid], 12 nM; with `COc1cc2c(cc1-c1cnc(N3CCC3)cc1C)CC(C(C)(C)C)n1cc(C(=O)O)c(=O)cc1-2` (stereo not drawn) [Example 53, 9-(6-(azetidin-1-yl)-4-methylpyridin-3-yl)-6-(tert-butyl)-10-methoxy-2-oxo-6,7-dihydro-2H-pyrido[2,1-a]isoquinoline-3-carboxylic acid], 1400 nM.
With `COc1cc2c(cc1-c1ccc(N)nc1)CC(C(C)(C)C)n1cc(C(=O)O)c(=O)cc1-2` (stereo not drawn) [Example 54, 9-(6-aminopyridin-3-yl)-6-(tert-butyl)-10-methoxy-2-oxo-6,7-dihydro-2H-pyrido[2,1-a]isoquinoline-3-carboxylic acid] the figure was 1 nM; with `CCOC(=O)c1cn2c(cc1=O)-c1cc(OC)c(-c3ccc(C)nc3)cc1CC2C(C)(C)C` (stereo not drawn) [Example 55, Ethyl 6-(tert-butyl)-10-methoxy-9-(6-methylpyridin-3-yl)-2-oxo-6,7-dihydro-2H-pyrido[2,1-a]isoquinoline-3-carboxylate], 0.8 nM.
Molecule `COc1cc2c(cc1-c1ccc(NC3CCC3)nc1)CC(C(C)(C)C)n1cc(C(=O)O)c(=O)cc1-2` (stereo not drawn) [Example 56, 6-(tert-butyl)-9-(6-(cyclobutylamino)pyridin-3-yl)-10-methoxy-2-oxo-6,7-dihydro-2H-pyrido[2,1-a]isoquinoline-3-carboxylic acid] displayed an IC50 of 1 nM.
`COc1cc2c(cc1-c1ccc(NC(C)=O)nc1)CC(C(C)(C)C)n1cc(C(=O)O)c(=O)cc1-2` (stereo not drawn) [Example 57, 9-(6-acetamidopyridin-3-yl)-6-(tert-butyl)-10-methoxy-2-oxo-6,7-dihydro-2H-pyrido[2,1-a]isoquinoline-3-carboxylic acid] yielded an IC50 of 1 nM.
For the molecule `COc1cc2c(cc1-c1cnc(C)nc1)CC(C(C)(C)C)n1cc(C(=O)O)c(=O)cc1-2` (stereo not drawn) [Example 58, 6-(tert-butyl)-10-methoxy-9-(2-methylpyrimidin-5-yl)-2-oxo-6,7-dihydro-2H-pyrido[2,1-a]isoquinoline-3-carboxylic acid], the midpoint of inhibition, the IC50, lay at 4 nM.
With `COc1cc2c(cc1-c1cnc(N3CCCC3)nc1)CC(C(C)(C)C)n1cc(C(=O)O)c(=O)cc1-2` (stereo not drawn) [Example 59, 6-(tert-butyl)-10-methoxy-2-oxo-9-(2-(pyrrolidin-1-yl)pyrimidin-5-yl)-6,7-dihydro-2H-pyrido[2,1-a]isoquinoline-3-carboxylic acid], the IC50 is 10 nM.
Turning to `COc1cc2c(cc1-c1cnc(N(C)C)nc1)CC(C(C)(C)C)n1cc(C(=O)O)c(=O)cc1-2` (stereo not drawn) [Example 61, 6-(tert-butyl)-9-(2-(dimethylamino)pyrimidin-5-yl)-10-methoxy-2-oxo-6,7-dihydro-2H-pyrido[2,1-a]isoquinoline-3-carboxylic acid], inhibition was half-maximal at 4 nM (IC50).
With `COc1cc2c(cc1-c1cnc(N3CCOCC3)nc1)CC(C(C)(C)C)n1cc(C(=O)O)c(=O)cc1-2` (stereo not drawn) [Example 62, 6-(tert-butyl)-10-methoxy-9-(2-morpholinylpyrimidin-5-yl)-2-oxo-6,7-dihydro-2H-pyrido[2,1-a]isoquinoline-3-carboxylic acid] the figure was 5 nM; with `COc1cc2c(cc1-c1cnc(NC3CC3)nc1)CC(C(C)(C)C)n1cc(C(=O)O)c(=O)cc1-2` (stereo not drawn) [Example 64, 6-(tert-butyl)-9-(2-(cyclopropylamino)pyrimidin-5-yl)-10-methoxy-2-oxo-6,7-dihydro-2H-pyrido[2,1-a]isoquinoline-3-carboxylic acid], 7 nM; with `COc1cc2c(cc1-c1cnc(N)nc1)CC(C(C)(C)C)n1cc(C(=O)O)c(=O)cc1-2` (stereo not drawn) [Example 65, 9-(2-aminopyrimidin-5-yl)-6-(tert-butyl)-10-methoxy-2-oxo-6,7-dihydro-2H-pyrido[2,1-a]isoquinoline-3-carboxylic acid], 80 nM.
Turning to `COc1ncc(-c2cc3c(cc2OC)-c2cc(=O)c(C(=O)O)cn2C(C(C)(C)C)C3)cn1` (stereo not drawn) [Example 66, 6-(tert-butyl)-10-methoxy-9-(2-methoxypyrimidin-5-yl)-2-oxo-6,7-dihydro-2H-pyrido[2,1-a]isoquinoline-3-carboxylic acid], inhibition was half-maximal at 0.8 nM (IC50).
With `COc1cc2c(cc1-c1cnc(NCC3CC3)nc1)CC(C(C)(C)C)n1cc(C(=O)O)c(=O)cc1-2` (stereo not drawn) [Example 67, 6-(tert-butyl)-9-(2-(cylcopropylmethylamino)pyrimidin-5-yl)-10-methoxy-2-oxo-6,7-dihydro-2H-pyrido[2,1-a]isoquinoline-3-carboxylic acid] the figure was 0.3 nM.
With `COc1cc2c(cc1-c1cnc(Cl)nc1)CC(C(C)(C)C)n1cc(C(=O)O)c(=O)cc1-2` (stereo not drawn) [Example 68, 6-(tert-butyl)-9-(2-chloropyrimidin-5-yl)-10-methoxy-2-oxo-6,7-dihydro-2H-pyrido[2,1-a]isoquinoline-3-carboxylic acid] the figure was 0.6 nM; with `COc1cc2c(cc1-c1cnc(NC3CCC3)nc1)CC(C(C)(C)C)n1cc(C(=O)O)c(=O)cc1-2` (stereo not drawn) [Example 76, 6-(tert-butyl)-9-(2-(cyclobutylamino)pyrimidin-5-yl)-10-methoxy-2-oxo-6,7-dihydro-2H-pyrido[2,1-a]isoquinoline-3-carboxylic acid], 0.4 nM.
`COc1cc2c(cc1-c1cnc(N3CCC(C(=O)O)C3)nc1)CC(C(C)(C)C)n1cc(C(=O)O)c(=O)cc1-2` (stereo not drawn) [Example 77, 6-(tert-butyl)-9-(2-(3-carboxypyrrolidin-1-yl)pyrimidin-5-yl)-10-methoxy-2-oxo-6,7-dihydro-2H-pyrido[2,1-a]isoquinoline-3-carboxylic acid] yielded an IC50 of 150 nM.
